{"source": "patent US6617354B1", "about": "“Method of stabilizing and potentiating the action of anti-angiogenic substances” (priority 2000, dated 2003)", "key": {"[1]": {"tested_on": "tumor cells", "assay": "PUFAs on tumor cells and normal cells in vitro", "type": "cell-based", "conditions": "for selective killing of tumor cells versus normal cells: tumor cells and normal cells in vitro; for tumor cell proliferation: in vitro", "excerpt": "(§1) Tumor cells are not only deficient in PUFAs but also have low rate(s) of lipid peroxidation, contain relatively large amounts of antioxidants such as vitamin E and superoxide dismutase (SOD). It is also believed that low rates of lipid peroxidation and consequent low amounts of lipid peroxides in the cells can contribute to an increase in the mitotic process which ultimately leads to an increase in cell proliferation. Thus, a deficiency of PUFAs, high amounts of antioxidants and the presence of low amounts of lipid peroxides in the tumor cells can contribute to the growth of tumor cells.\nEssential fatty acids are precursors of eicosanoids and are important structural components of cell membranes. They also provide the substrates for the generation of lipid peroxidation products which have an inhibitory action on cell proliferation. Tumor cells are known to have low delta-6-desaturase activity, an enzyme necessary for the desaturation of dietary linoleic acid (LA, 18:2, n-6) and alpha-linolenic acid (ALA, 18:3, n-3) to their respective products. […] This selective tumoricidal action of fatty acids seems to be mediated by free radicals and lipid peroxides."}, "[2]": {"tested_on": "tumor cells", "assay": "Potentiation of anti-cancer drugs by PUFAs in tumor cells", "type": "cell-based", "conditions": "combination with the fatty acid"}, "[3]": {"tested_on": "bone marrow cells", "assay": "Side effects of gamma-radiation and cis-platinum to bone marrow cells of mice", "type": "in vivo"}, "[4]": {"tested_on": "tumor cells", "assay": "Mixed culture of normal and tumor cells", "type": "cell-based", "conditions": "normal and tumor cells grown together", "excerpt": "as §1"}, "[5]": {"tested_on": "TNF resistant L-929 tumor cells", "assay": "TNF resistant L-929 tumor cells in vitro", "type": "cell-based", "conditions": "for killing of TNF resistant L-929 tumor cells: in vitro; for sensitisation of TNF-resistant L-929 cells to TNF: prior treatment with the fatty acid"}, "[6]": {"tested_on": "ascitic tumor cells", "assay": "Ascitic tumor cells in the peritoneum of experimental animals", "type": "in vivo", "conditions": "pure fatty acid or fatty acid rich oils"}, "[7]": {"tested_on": "KB-chR 8-5 cells", "assay": "Vincristine resistant KB-8-5 tumor cells", "type": "cell-based"}, "[8]": {"tested_on": "hepatoma", "assay": "Hepatoma in rats", "type": "in vivo", "conditions": "pure fatty acid or fatty acid rich oils"}, "[9]": {"tested_on": "skin papilloma", "assay": "Skin papilloma in mice", "type": "in vivo", "conditions": "pure fatty acid or fatty acid rich oils"}, "[10]": {"tested_on": "subcutaneous hemangioendothelioma", "conditions": "mice with subcutaneous hemangioendothelioma and disseminated intravascular coagulopathy; cited from earlier work"}, "[11]": {"tested_on": "E-selectin", "conditions": "proliferating endothelial cells; cited from earlier work"}, "[12]": {"biological_target": "T1, alpha/beta sub-units of ATP synthase (Homo sapiens, UniProt P06576+P25705)", "T1 construct": "Using human umbilical endothelial vein endothelial cells; endogenous in cells; host or cells: human umbilical vein endothelial cells", "T1 sequence (P25705 44-553)": "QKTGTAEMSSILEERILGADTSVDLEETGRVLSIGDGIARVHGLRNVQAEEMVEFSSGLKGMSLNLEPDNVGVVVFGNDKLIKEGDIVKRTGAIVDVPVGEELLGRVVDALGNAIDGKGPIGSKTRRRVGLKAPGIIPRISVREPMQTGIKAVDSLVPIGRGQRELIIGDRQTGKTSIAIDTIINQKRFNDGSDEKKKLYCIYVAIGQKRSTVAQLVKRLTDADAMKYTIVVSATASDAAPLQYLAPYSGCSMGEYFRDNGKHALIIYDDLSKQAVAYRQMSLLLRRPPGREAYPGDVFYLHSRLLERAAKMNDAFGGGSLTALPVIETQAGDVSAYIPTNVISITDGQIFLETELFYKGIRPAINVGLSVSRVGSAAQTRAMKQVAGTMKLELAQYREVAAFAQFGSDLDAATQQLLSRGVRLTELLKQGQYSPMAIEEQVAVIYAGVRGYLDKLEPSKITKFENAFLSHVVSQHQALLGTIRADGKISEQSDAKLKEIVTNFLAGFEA", "T1 sequence (P06576 48-529)": "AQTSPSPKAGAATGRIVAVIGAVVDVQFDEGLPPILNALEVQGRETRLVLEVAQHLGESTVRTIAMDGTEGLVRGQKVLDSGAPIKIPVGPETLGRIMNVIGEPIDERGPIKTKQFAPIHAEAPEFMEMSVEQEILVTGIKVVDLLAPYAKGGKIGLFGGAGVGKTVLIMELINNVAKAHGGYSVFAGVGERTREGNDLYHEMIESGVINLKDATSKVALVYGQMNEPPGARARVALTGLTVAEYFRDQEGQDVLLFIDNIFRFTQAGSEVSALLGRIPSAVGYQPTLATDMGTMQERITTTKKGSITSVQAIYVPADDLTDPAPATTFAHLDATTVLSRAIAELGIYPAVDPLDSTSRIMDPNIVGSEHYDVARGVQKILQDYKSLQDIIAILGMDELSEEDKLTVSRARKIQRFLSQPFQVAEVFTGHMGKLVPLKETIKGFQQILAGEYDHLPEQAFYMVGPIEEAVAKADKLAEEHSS", "T1 sequence (P36542 26-298 partner)": "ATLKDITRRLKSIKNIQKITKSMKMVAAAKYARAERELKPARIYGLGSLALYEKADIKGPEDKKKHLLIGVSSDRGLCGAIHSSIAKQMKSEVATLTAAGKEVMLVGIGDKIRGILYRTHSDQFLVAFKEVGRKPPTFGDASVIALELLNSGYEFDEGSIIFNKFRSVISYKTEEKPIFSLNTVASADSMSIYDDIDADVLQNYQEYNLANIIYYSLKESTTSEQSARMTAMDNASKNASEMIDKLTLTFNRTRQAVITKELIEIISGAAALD", "T1 sequence (P30049 23-168 partner)": "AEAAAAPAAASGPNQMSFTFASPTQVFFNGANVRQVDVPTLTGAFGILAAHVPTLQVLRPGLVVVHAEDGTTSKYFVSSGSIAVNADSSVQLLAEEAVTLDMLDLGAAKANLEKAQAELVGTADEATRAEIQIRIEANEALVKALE", "T1 sequence (P56381 2-51 partner limits assumed)": "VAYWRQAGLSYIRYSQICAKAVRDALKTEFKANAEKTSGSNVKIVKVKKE", "conditions": "human umbilical vein endothelial cells; cited from earlier work"}, "[13]": {"tested_on": "corneal plasminogen synthesis", "conditions": "cornea; cited from earlier work"}, "[14]": {"tested_on": "tumor cells", "conditions": "cited from earlier work"}}}
{"compound": "CC/C=C\\C/C=C\\C/C=C\\CCCCCCCC(=O)O", "note": "[ALA, alpha-linolenic acid]", "values": [{"measurement": "selective killing of tumor cells versus normal cells", "setting": "[1]", "value": "only tumor cells are killed"}]}
{"compound": "CC/C=C\\C/C=C\\C/C=C\\C/C=C\\C/C=C\\CCCC(=O)O", "note": "[EPA, eicosapentaenoic acid]", "values": [{"measurement": "cytotoxic action of doxorubicin, vincristine and cis-platinum", "setting": "[2]", "value": "augmented"}, {"measurement": "side effects of gamma-radiation and cis-platinum to bone marrow cells", "setting": "[3]", "value": "prevent or ameliorate the side effects"}]}
{"compound": "CCCCC/C=C\\C/C=C\\C/C=C\\C/C=C\\CCCC(=O)O", "note": "[AA, arachidonic acid]", "values": [{"measurement": "selective tumoricidal action in mixed culture", "setting": "[4]", "value": "effective to some extent"}, {"measurement": "killing of TNF resistant L-929 tumor cells", "setting": "[5]", "value": "able to kill"}, {"measurement": "sensitisation of TNF-resistant L-929 cells to TNF", "setting": "[5]", "value": "rendered TNF sensitive"}, {"measurement": "cellular uptake of anti-cancer drugs by the tumor cells", "setting": "[2]", "value": "enhance the cellular uptake"}, {"measurement": "cytotoxic action of doxorubicin, vincristine and cis-platinum", "setting": "[2]", "value": "augmented"}, {"measurement": "growth of ascitic tumor cells in the peritoneum", "setting": "[6]", "value": "inhibit the growth"}, {"measurement": "sensitisation of vincristine resistant KB-8-5 cells to vincristine", "setting": "[7]", "value": "made sensitive"}, {"measurement": "formation and growth of hepatoma", "setting": "[8]", "value": "inhibit the growth"}, {"measurement": "tumor cell proliferation", "setting": "[1]", "value": "decrease tumor cell proliferation"}, {"measurement": "selective killing of tumor cells versus normal cells", "setting": "[1]", "value": "only tumor cells are killed"}, {"measurement": "growth of skin papilloma", "setting": "[9]", "value": "inhibit the growth"}]}
{"compound": "angiostatin®", "values": [{"measurement": "size of the tumor", "setting": "[10]", "value": "significant reduction"}, {"measurement": "survival", "setting": "[10]", "value": "increased survival"}, {"measurement": "effect on expression of E-selectin", "setting": "[11]", "value": "4 to 5", "unit": "fold"}, {"measurement": "binding to alpha/beta sub-units of ATP synthase", "setting": "[12]", "value": "bound in a concentration-dependent, saturable manner"}]}
{"compound": "CCCCC/C=C\\C/C=C\\C/C=C\\CCCCC(=O)O", "note": "[GLA, gamma-linolenic acid]", "values": [{"measurement": "killing of TNF resistant L-929 tumor cells", "setting": "[5]", "value": "able to kill"}, {"measurement": "cellular uptake of anti-cancer drugs by the tumor cells", "setting": "[2]", "value": "enhance the cellular uptake"}, {"measurement": "cytotoxic action of doxorubicin, vincristine and cis-platinum", "setting": "[2]", "value": "augmented"}, {"measurement": "growth of ascitic tumor cells in the peritoneum", "setting": "[6]", "value": "inhibit the growth"}, {"measurement": "formation and growth of hepatoma", "setting": "[8]", "value": "inhibit the growth"}, {"measurement": "side effects of gamma-radiation and cis-platinum to bone marrow cells", "setting": "[3]", "value": "prevent or ameliorate the side effects"}, {"measurement": "tumor cell proliferation", "setting": "[1]", "value": "decrease tumor cell proliferation"}]}
{"compound": "interleukin-6: cytokine", "values": [{"measurement": "decrease of corneal plasminogen synthesis", "setting": "[13]", "value": 40, "unit": "%"}]}
{"compound": "CC/C=C\\C/C=C\\C/C=C\\C/C=C\\C/C=C\\C/C=C\\CCC(=O)O", "note": "[DHA, docosahexaenoic acid]", "values": [{"measurement": "cytotoxic action of doxorubicin, vincristine and cis-platinum", "setting": "[2]", "value": "augmented"}]}
{"compound": "CC\\C=C/C=C/C=C/C=C\\CCCCCCCC(=O)O", "note": "[cis-parinaric acid]", "values": [{"measurement": "selective killing of tumor cells versus normal cells", "setting": "[1]", "value": "only tumor cells are killed"}]}
{"compound": "CCCCC/C=C\\C/C=C\\CCCCCCCC(=O)O", "note": "[LA, linoleic acid]", "values": [{"measurement": "selective killing of tumor cells versus normal cells", "setting": "[1]", "value": "only tumor cells are killed"}]}
{"compound": "vitamin E", "values": [{"measurement": "free radical generation and lipid peroxidation generated by PUFAs like GLA, EPA and DHA", "setting": "[14]", "value": "completely inhibit"}]}
{"compound": "CCCCC/C=C\\C/C=C\\C/C=C\\CCCCCCC(=O)O", "note": "[DGLA, dihomo-GLA]", "values": [{"measurement": "killing of TNF resistant L-929 tumor cells", "setting": "[5]", "value": "able to kill"}, {"measurement": "sensitisation of TNF-resistant L-929 cells to TNF", "setting": "[5]", "value": "rendered TNF sensitive"}, {"measurement": "cellular uptake of anti-cancer drugs by the tumor cells", "setting": "[2]", "value": "enhance the cellular uptake"}, {"measurement": "cytotoxic action of doxorubicin, vincristine and cis-platinum", "setting": "[2]", "value": "augmented"}, {"measurement": "growth of ascitic tumor cells in the peritoneum", "setting": "[6]", "value": "inhibit the growth"}, {"measurement": "sensitisation of vincristine resistant KB-8-5 cells to vincristine", "setting": "[7]", "value": "made sensitive"}, {"measurement": "formation and growth of hepatoma", "setting": "[8]", "value": "inhibit the growth"}, {"measurement": "side effects of gamma-radiation and cis-platinum to bone marrow cells", "setting": "[3]", "value": "prevent or ameliorate the side effects"}, {"measurement": "tumor cell proliferation", "setting": "[1]", "value": "decrease tumor cell proliferation"}, {"measurement": "selective killing of tumor cells versus normal cells", "setting": "[1]", "value": "only tumor cells are killed"}, {"measurement": "growth of skin papilloma", "setting": "[9]", "value": "inhibit the growth"}]}
